How the values were obtained:
CDK2/cyclin A2 = biological target: T1, CDK2/cyclin A2 (Homo sapiens, UniProt P24941); assay: Human CDK2/cyclin A2 inhibitory activity (QS S Assist CDK2/Cyclin A2_FP Kit, IMAP fluorescent polarization); assay type: biochemical; settings: read-out: CDK2 Activity symbol
T1 construct: purchased Carna Biosciences, Inc. QS S Assist CDK2/Cyclin A2_FP Kit
Procedure: Human CDK2/Cyclin A2 Inhibitory Activity
(§1) Each compound was analyzed for CDK2/cyclin A2 inhibitory activity with an assay kit (QS S Assist CDK2/Cyclin A2_FP Kit, available from Carna Biosciences, Inc.). This assay kit determines kinase activity on the basis of the IMAP technology by Molecular Devices. Specifically, the kinase activity is determined through quantification of a variation in fluorescent polarization caused by binding of a kinase-phosphorylated fluorescent substance to an IMAP-binding reagent.
An assay buffer was prepared by 10-fold dilution of the 10× assay buffer attached to the kit with distilled water, and each solution was prepared with the assay buffer. The assay buffer contained 20 mM HEPES (pH 7.4), 0.01% Tween 20, and 2 mM dithiothreitol. A test compound solution was prepared by dilution of the test compound with dimethyl sulfoxide (DMSO) to a concentration 100 times higher than the final concentration and then 25-fold dilution with the assay buffer to a concentration four times higher than the final concentration. An ATP/substrate/Metal solution was prepared by five-fold dilution of the 5×ATP/substrate/Metal solution attached to the kit with the assay buffer. An enzyme solution was prepared by dilution of the CDK2/cyclin A2 attached to the kit with the assay buffer to a concentration twice higher than the final concentration (final concentration of CDK2/cyclin A2: 2.5 ng/well). A detection reagent was prepared by five-fold dilution of 5×IMAP-binding buffer A with distilled water and 400-fold dilution of the IMAP-binding reagent with the diluted buffer.
(§2) The test compound solution (5 μL/well) and the ATP/substrate/Metal solution (5 μL/well) were added to a 384-well plate, and the enzyme solution or the assay buffer (10 μL/well) was added to the plate (total amount of the reaction mixture: 20 μL/well) for initiation of enzymatic reaction. […] The reaction was performed at room temperature for 60 minutes, and the detection reagent (60 μL/well) was then added to the plate, followed by further reaction for 30 minutes at room temperature under light shielding conditions. Subsequently, fluorescent polarization was determined with a microplate reader at an excitation wavelength of 485 nm and an emission wavelength of 535 nm.
The percent inhibition of enzyme activity was calculated for each test compound (note: enzyme activity=100% in the case of addition of the enzyme solution and addition of DMSO instead of the test compound solution, whereas enzyme activity […] in the case of addition of the assay buffer instead of the enzyme solution and addition of DMSO instead of the test compound solution). The percent inhibition of enzyme activity was fitted to a dose-response curve, to determine a 50% inhibitory concentration against CDK2/cyclin A2.
In each table, “+++” corresponds to IC50<10 nM, “++” 10 nM≤IC50<100 nM, and “+” 100 nM≤IC50.

CDK4/cyclin D3 = biological target: T2, CDK4/cyclin D3 (Homo sapiens, UniProt P11802); assay: Human CDK4/cyclin D3 inhibitory activity (QS S Assist CDK4/Cyclin D3_FP Kit, IMAP fluorescent polarization); assay type: biochemical; settings: read-out: CDK4 Activity symbol
T2 construct: purchased Carna Biosciences, Inc. QS S Assist CDK4/Cyclin D3_FP Kit
T2 sequence (P11802 whole entry): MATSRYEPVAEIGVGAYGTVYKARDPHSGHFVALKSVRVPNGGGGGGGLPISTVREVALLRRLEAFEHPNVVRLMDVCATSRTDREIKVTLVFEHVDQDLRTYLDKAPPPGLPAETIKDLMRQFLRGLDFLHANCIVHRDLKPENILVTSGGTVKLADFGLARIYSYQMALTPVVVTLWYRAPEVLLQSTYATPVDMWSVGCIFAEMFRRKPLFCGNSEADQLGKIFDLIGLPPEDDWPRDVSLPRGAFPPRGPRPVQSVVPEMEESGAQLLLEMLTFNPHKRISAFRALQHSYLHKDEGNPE
T2 sequence (P30281 whole entry partner): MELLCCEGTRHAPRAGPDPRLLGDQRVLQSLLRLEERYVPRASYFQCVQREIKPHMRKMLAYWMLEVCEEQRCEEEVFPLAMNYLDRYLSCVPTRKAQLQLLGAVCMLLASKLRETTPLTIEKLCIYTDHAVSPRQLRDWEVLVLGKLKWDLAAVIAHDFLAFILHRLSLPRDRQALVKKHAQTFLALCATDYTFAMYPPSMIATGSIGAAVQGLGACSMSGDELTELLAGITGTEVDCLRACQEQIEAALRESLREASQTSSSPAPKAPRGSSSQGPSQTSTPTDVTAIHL
Procedure: Human CDK4/Cyclin D3 Inhibitory Activity
as §1, with “CDK4/cyclin D3” for “CDK2/cyclin A2”, “CDK4/Cyclin D3_FP” for “CDK2/Cyclin A2_FP”
Each solution was prepared with the 10× assay buffer attached to the kit or a separately prepared assay buffer having the same composition as the assay buffer attached to the kit. An assay buffer was prepared by 10-fold dilution of the 10× assay buffer with distilled water. The assay buffer contains 20 mM HEPES (pH 7.4), 0.01% Tween20, and 2 mM dithiothreitol. A test compound solution was prepared by dilution of the test compound with dimethyl sulfoxide (DMSO) to a concentration 100 times higher than the final concentration and then 25-fold dilution with the assay buffer to a concentration four times higher than the final concentration. An ATP/substrate/Metal solution was prepared by five-fold dilution of the 5×ATP/substrate/Metal solution attached to the kit with the assay buffer. An enzyme solution was prepared by dilution of the CDK4/cyclin D3 attached to the kit with the assay buffer to a concentration twice higher than the final concentration (final concentration of CDK4/cyclin D3: 12.5 to 25 ng/well). A detection reagent was prepared by five-fold dilution of each of 5×IMAP-binding buffer A and 5×IMAP-binding buffer B with distilled water, mixing of IMAP-binding buffer A with IMAP-binding buffer B at a ratio of 85:15, and 400-fold dilution of the IMAP-binding reagent with the mixed buffer.
as §2, with “for 45” for “for 60”
The percent inhibition of enzyme activity was calculated for each test compound (note: enzyme activity=100% in the case of addition of the enzyme solution and addition of DMSO instead of the test compound solution, whereas enzyme activity […] in the case of addition of the assay buffer instead of the enzyme solution, and addition of DMSO instead of the test compound solution). The percent inhibition of enzyme activity was fitted to a dose-response curve, to determine a 50% inhibitory concentration against CDK4/cyclin D3.
In each table, “+++” corresponds to IC50<10 nM. “++” 10 nM […] IC50<100 nM, and “+” 100 nM≤IC50.

IC50 (CDK2/cyclin A2) [nM]	IC50 (CDK4/cyclin D3) [nM]	SMILES
≥ 100	< 10	C[C@@H](O)c1cc2cnc(Nc3ccc4c(n3)CCN(CCO)C4)nc2c(N2CCCCC2)n1 [Compound 111]
≥ 100	< 10	C[C@@H](O)c1cc2cnc(Nc3ccc4c(n3)CCN(CCO)C4)nc2c(N2CCC(F)CC2)n1 [Compound 112]
≥ 100	< 10	CC(O)c1cc2cnc(Nc3ccc(CN4CCN(CCO)CC4)cn3)nc2c(N2CC(C)C(C)C2)n1 (centres unmarked) [Compound 113]
≥ 100	< 10	C[C@@H](O)c1cc2cnc(Nc3ccc(N4CCN(CCS(C)(=O)=O)CC4)nn3)nc2c(N2CCCCC2)n1 [Compound 114, (R)-1-(2-((6-(4-(2-(methylsulfonyl)ethyl)piperazin-1-yl)pyridazin-3-yl)amino)-8-(piperidin-1-yl)pyrido[3,4-d]pyrimidin-6-yl)ethanol]
≥ 100	< 10	C[C@@H](O)c1cc2cnc(Nc3ccc(CN4CCN(C)CC4)cn3)nc2c(N2CCC(F)CC2)n1 [Compound 115]
≥ 100	< 10	C[C@@H](O)c1cc2cnc(Nc3ccc(CN4CCN(C)CC4)cn3)nc2c(N2CC[C@@H](F)C2)n1 [Compound 116]
≥ 100	< 10	C[C@@H](O)c1cc2cnc(Nc3ccc(CN4CCN(C)CC4)cn3)nc2c(N2CC[C@H](F)C2)n1 [Compound 117]
≥ 100	< 10	CO[C@H](C)c1cc2cnc(Nc3ccc(N4CCNCC4)nn3)nc2c(N2CCCCC2)n1 [Compound 118]
≥ 100	< 10	CO[C@H](C)c1cc2cnc(Nc3ccc(CN4CCNCC4)cn3)nc2c(N2CCCCC2)n1 [Compound 119]
≥ 100	< 10	C[C@@H](O)c1cc2cnc(Nc3ccc(N4CCN(C)CCC4=O)cn3)nc2c(N2CCCC2)n1 [Compound 120]
≥ 100	< 10	C[C@@H](O)c1cc2cnc(Nc3ccc(N4CCN(C)CCC4=O)cn3)nc2c(N2CCCCC2)n1 [Compound 121]
≥ 100	< 10	CCN1CCN(Cc2ccc(Nc3ncc4cc([C@@H](C)O)nc(N5CCCCC5)c4n3)nc2)CC1 [Compound 122]

The next lines start with the compound.

SMILES	IC50 (CDK2/cyclin A2) [nM]	IC50 (CDK4/cyclin D3) [nM]
Cc1nc(Nc2ncc3cc([C@@H](C)O)nc(N4CCCC4)c3n2)ccc1N1CCNCC1 [Compound 86]	≥ 100	< 10
Cc1nc(Nc2ncc3cc([C@@H](C)O)nc(N4CCCCC4)c3n2)ccc1N1CCNCC1 [Compound 87]	≥ 100	< 10
Cc1nc(Nc2ncc3cc([C@@H](C)O)nc(N4CCCCC4)c3n2)ccc1N1CCN(CCO)CC1 [Compound 88]	≥ 100	< 10
C[C@@H](O)c1cc2cnc(Nc3ccc(N4CCNCCC4=O)cn3)nc2c(N2CCCCC2)n1 [Compound 89]	≥ 100	< 10
C[C@@H](O)c1cc2cnc(Nc3ccc(N4CCNCC4=O)cn3)nc2c(N2CCC(F)CC2)n1 [Compound 90]	≥ 100	< 10
C[C@@H](O)c1cc2cnc(Nc3ccc(N4CCNCC4)nn3)nc2c(N2CCCCC2)n1 [Compound 91]	≥ 100	< 10
OCCc1cc2cnc(Nc3ccc(CN4CCNCC4)cn3)nc2c(N2CCCCC2)n1 [Compound 92]	≥ 100	< 10
O=C1CNCCN1c1ccc(Nc2ncc3cc(CCO)nc(N4CCCCC4)c3n2)nc1 [Compound 93]	≥ 100	< 10
OCCc1cc2cnc(Nc3ccc(N4CCNCC4)nn3)nc2c(N2CCCCC2)n1 [Compound 94]	≥ 100	< 10
OCCc1cc2cnc(Nc3ccc4c(n3)CCNC4)nc2c(N2CCCCC2)n1 [Compound 95]	≥ 100	10 to 100
OCCN1CCN(Cc2ccc(Nc3ncc4cc(CO)nc(N5CCCCC5)c4n3)nc2)CC1 [Compound 96]	≥ 100	< 10
O=C1CNCCN1c1ccc(Nc2ncc3cc(CO)nc(N4CCCCC4)c3n2)nc1 [Compound 97]	≥ 100	< 10
C[C@@H](O)c1cc2cnc(Nc3ccc(CN4CCN(CCO)CC4)cn3)nc2c(N2CCC[C@@H]2C)n1 [Compound 98]	≥ 100	10 to 100
C[C@H]1CCN(c2nc([C@@H](C)O)cc3cnc(Nc4ccc(CN5CCN(CCO)CC5)cn4)nc23)C1 [Compound 99]	≥ 100	< 10
C[C@@H]1CCN(c2nc([C@@H](C)O)cc3cnc(Nc4ccc(CN5CCN(CCO)CC5)cn4)nc23)C1 [Compound 100]	≥ 100	< 10
CC1CCC(C)N1c1nc([C@@H](C)O)cc2cnc(Nc3ccc(CN4CCN(CCO)CC4)cn3)nc12 (some centres unmarked) [Compound 101]	≥ 100	< 10
C[C@@H](O)c1cc2cnc(Nc3ccc(CN4CCN(CCO)CC4)cn3)nc2c(N2CCC(C)(C)C2)n1 [Compound 102]	≥ 100	< 10
C[C@@H](O)c1cc2cnc(Nc3ccc(CN4CCN(CCO)CC4)cn3)nc2c(N2C3CCC2CC3)n1 [Compound 103]	≥ 100	< 10
C[C@@H](O)c1cc2cnc(Nc3ccc(CN4CCN(CCO)CC4)cn3)nc2c(N2CC3CC3C2)n1 (some centres unmarked) [Compound 104]	≥ 100	< 10
CC(O)c1cc2cnc(Nc3ccc(CN4CCN(CCO)CC4)cn3)nc2c(N2C3CCCC2CC3)n1 (centres unmarked) [Compound 105]	≥ 100	< 10
C[C@@H](O)c1cc2cnc(Nc3ccc(CN4CCN(CCO)CC4)cn3)nc2c(N2CCC(O)CC2)n1 [Compound 106]	≥ 100	< 10
OCc1cc2cnc(Nc3ccc(N4CCNCC4)nn3)nc2c(N2CCCCC2)n1 [Compound 107]	≥ 100	< 10
OCc1cc2cnc(Nc3ccc(CN4CCNCC4)cn3)nc2c(N2CCCCC2)n1 [Compound 108]	≥ 100	< 10
OCCc1cc2cnc(Nc3ccc4c(n3)CCN(CCO)C4)nc2c(N2CCCCC2)n1 [Compound 109]	≥ 100	< 10
CN(C)CCN1CCc2nc(Nc3ncc4cc(CCO)nc(N5CCCCC5)c4n3)ccc2C1 [Compound 110]	≥ 100	< 10

Reference: patent US11084814B2, “Pyrido[3, 4-d]pyrimidine derivative and pharmaceutically acceptable salt thereof” (Teijin Pharma Limited, priority 2016, dated 2021)
